Reference: patent US20230069804A1, “METHODS AND COMPOSITIONS FOR MODULATING SPLICING” (SkyHawk Therapeutics, Inc., priority 2019, published 2023)
Like-named read-outs stand apart in the source and are kept apart here.

What was measured:
[1] = tested on: MDR1-MDCK cell monolayers; assay: MDCK-MDR1 permeability assay (BBB penetration potential); format: in vitro ADME; settings: 5 μM, 120 minutes; for MDCK-MDR1: % Recov A-B / MDCK-MDR1: % Recov B-A: pH 7.4; for MDCK MDRP1 Efflux Ratio: Papp (B-to-A)/Papp (A-to-B), separated enantiomers, told apart by chiral retention time
Experimental: (§1) Each determination is performed in duplicate. […] Analytical conditions are outlined below.
(§2) Papp=(dCr/dt)×Vr/(A×CA) (1)

MDR1 = assay: as above; format: in vitro ADME; settings: dog; for Papp A→B at 120 min, 5 μM / Papp B→A at 120 min, 5 μM: MDCK-MDR1, pH 7.4
Experimental: as §1, §2

[2] = MDCK-MDR1, pH 7.4, Papp (B-to-A)/Papp (A-to-B), read-out: MDCK-MDR1: Efflux
[3] = MDCK-MDR1, pH 7.4, Papp (B-to-A)/Papp (A-to-B), 5 μM, 120 minutes, separated enantiomers, told apart by chiral retention time, read-out: MDCK MDRP1 Efflux Ratio

| SMILES | MDCK-MDR1: % Recov A-B [1] | MDCK-MDR1: % Recov B-A [1] | efflux ratio at 120 min, 5 μM (MDR1; [2]) | Papp A→B at 120 min, 5 μM (MDR1; 5 μM, 120 minutes) | Papp B→A at 120 min, 5 μM (MDR1; 5 μM, 120 minutes) | MDCK MDRP1 Efflux Ratio [1] | efflux ratio at 120 min, 5 μM (MDR1; [3]) |
| --- | --- | --- | --- | --- | --- | --- | --- |
| CN(c1nnc(-c2ccc(-c3cn[nH]c3)cc2O)s1)[C@@H]1C[C@H]2CC[C@@H]([C@@H]1F)N2C (single isomer, unassigned) [Compound E-23B] | 83% | 89% | 7 | 5.69 ×10⁻⁶ cm/s | 39 ×10⁻⁶ cm/s |  |  |
| COc1cc(-c2ccc(-c3nnc(N(C)[C@H]4C[C@@H]5CC[C@@H](N5)[C@H]4F)s3)c(O)c2)ccn1 (single isomer, unassigned) [Compound E-11B] | 17% | 60% | 2 | 3.71 ×10⁻⁶ cm/s | 6.07 ×10⁻⁶ cm/s |  |  |
| CN(c1nnc(-c2cc(F)c(-c3cnn(C)c3)cc2O)s1)[C@H]1C[C@@H]2CC[C@@H](N2)[C@H]1F (racemic) [9A/9B, 4-fluoro-2-(5-{[(1S,2S,3R,5R)-2-fluoro-8-azabicyclo[3.2.1]octan-3-yl](methyl)amino}-1,3,4-thiadiazol-2-yl)-5-(1-methyl-1H-pyrazol-4-yl)phenol and 4-fluoro-2-(5-{[(1R,2R,3S,5S)-2-fluoro-8-azabicyclo[3.2.1]octan-3-yl](methyl)amino}-1,3,4-thiadiazol-2-yl)-5-(1-methyl-1H-pyrazol-4-yl)phenol] |  |  |  |  |  | 6 | 5 |
| CN(c1nnc(-c2ccc(-c3ccn(CF)c(=O)c3)cc2O)s1)[C@@H]1C[C@H]2CC[C@H](N2)[C@@H]1F (single isomer, unassigned) [Compound E-15A] | 82% | 96% | 40 | 1.39 ×10⁻⁶ cm/s | 55.6 ×10⁻⁶ cm/s |  |  |
| CN(c1nnc(-c2cc(F)c(-c3cn[nH]c3)cc2O)s1)[C@@H]1C[C@H]2CC[C@@H]([C@@H]1F)N2C (single isomer, unassigned) [Compound E-24B] | 59% | 82% | 7 | 4.16 ×10⁻⁶ cm/s | 29.4 ×10⁻⁶ cm/s |  |  |
| CN(c1nnc(-c2ccc(-c3cnn(CF)c3)cc2O)s1)[C@H]1C[C@@H]2CC[C@@H](N2)[C@H]1F (single isomer, unassigned) [Compound E-10A] | 72% | 80% | 6 | 8.6 ×10⁻⁶ cm/s | 50.8 ×10⁻⁶ cm/s |  |  |
| CN(c1nnc(-c2cc(F)c(-c3cn[nH]c3)cc2O)s1)[C@H]1C[C@@H]2CC[C@H]([C@H]1F)N2C (racemic) [24A/24B, 4-fluoro-2-(5-{[(1S,2S,3R,5R)-2-fluoro-8-methyl-8-azabicyclo[3.2.1]octan-3-yl](methyl)amino}-1,3,4-thiadiazol-2-yl)-5-(1H-pyrazol-4-yl)phenol and 4-fluoro-2-(5-{[(1R,2R,3S,5S)-2-fluoro-8-methyl-8-azabicyclo[3.2.1]octan-3-yl](methyl)amino}-1,3,4-thiadiazol-2-yl)-5-(1H-pyrazol-4-yl)phenol] |  |  |  |  |  | 7 | 6 |
| CN(c1nnc(-c2ccc(-c3cn[nH]c3)cc2O)s1)[C@H]1C[C@@H]2CC[C@H]([C@H]1F)N2C (racemic) [23A/23B, 2-(5-{[(1S,2S,3R,5R)-2-fluoro-8-methyl-8-azabicyclo[3.2.1]octan-3-yl](methyl)amino}-1,3,4-thiadiazol-2-yl)-5-(1H-pyrazol-4-yl)phenol and 2-(5-{[(1R,2R,3S,5S)-2-fluoro-8-methyl-8-azabicyclo[3.2.1]octan-3-yl](methyl)amino}-1,3,4-thiadiazol-2-yl)-5-(1H-pyrazol-4-yl)phenol] |  |  |  |  |  | 9 | 7 |
| CN(c1nnc(-c2ccc(-c3ccn(C)c(=O)c3)cc2O)s1)[C@H]1C[C@@H]2CC[C@@H](N2)[C@H]1F (single isomer, unassigned) [Compound E-4B] | 115% | 125% | 40 | 1.81 ×10⁻⁶ cm/s | 71.4 ×10⁻⁶ cm/s |  |  |
| CN(c1nnc(-c2ccc(-c3cnn(C)c3)cc2O)s1)[C@@H]1C[C@H]2CC[C@@H]([C@@H]1F)N2C (single isomer, unassigned) [Compound E-25B] | 67% | 83% | 3 | 7.16 ×10⁻⁶ cm/s | 22.7 ×10⁻⁶ cm/s |  |  |
| CN(c1nnc(-c2ccc(-c3cn[nH]c3)cc2O)s1)[C@H]1C[C@@H]2CC[C@@H](N2)[C@H]1F (single isomer, unassigned) [Compound E-7A] | 99% | 102% | 12 | 5.22 ×10⁻⁶ cm/s | 60.6 ×10⁻⁶ cm/s |  |  |
| CN(c1nnc(-c2ccc(-c3cnn(C)c3)cc2O)s1)[C@H]1C[C@@H]2CC[C@H]([C@H]1F)N2C (racemic) [21A/21B, 2-(5-{[(1S,2S,3R,5R)-2-fluoro-8-methyl-8-azabicyclo[3.2.1]octan-3-yl](methyl)amino}-1,3,4-thiadiazol-2-yl)-5-(1-methyl-1H-pyrazol-4-yl)phenol and 2-(5-{[(1R,2R,3S,5S)-2-fluoro-8-methyl-8-azabicyclo[3.2.1]octan-3-yl](methyl)amino}-1,3,4-thiadiazol-2-yl)-5-(1-methyl-1H-pyrazol-4-yl)phenol] |  |  |  |  |  | 4 | 3 |
| CN(c1nnc(-c2cc(F)c(-c3cn[nH]c3)cc2O)s1)[C@@H]1C[C@H]2CC[C@H](N2)[C@@H]1F (single isomer, unassigned) [Compound E-6A] | 59% | 80% | 15 | 2.33 ×10⁻⁶ cm/s | 35.2 ×10⁻⁶ cm/s |  |  |
| CN(c1nnc(-c2ccc(-c3cnn(C)c3)cc2O)s1)[C@H]1C[C@@H]2CC[C@H]([C@H]1F)N2C (single isomer, unassigned) [Compound E-25A] | 70% | 82% | 4 | 8.7 ×10⁻⁶ cm/s | 32 ×10⁻⁶ cm/s |  |  |
| CN(c1nnc(-c2ccc(-c3cc(=O)n(C)cn3)cc2O)s1)[C@@H]1C[C@H]2CC[C@H](N2)[C@@H]1F (racemic) [8A/8B, 6-[4-(5-{[(1S,2S,3R)-2-fluoro-8-azabicyclo[3.2.1]octan-3-yl](methyl)amino}-1,3,4-thiadiazol-2-yl)-3-hydroxyphenyl]-3-methyl-3,4-dihydropyrimidin-4-one and 6-[4-(5-{[(2R,3S,5S)-2-fluoro-8-azabicyclo[3.2.1]octan-3-yl](methyl)amino}-1,3,4-thiadiazol-2-yl)-3-hydroxyphenyl]-3-methyl-3,4-dihydropyrimidin-4-one] |  |  |  |  |  | 31 | 21 |
| COc1cc(-c2ccc(-c3nnc(N(C)[C@H]4C[C@@H]5CC[C@@H](N5)[C@H]4F)s3)c(O)c2)ncn1 (single isomer, unassigned) [Compound E-5B] | 37% | 58% | 2 | 6.59 ×10⁻⁶ cm/s | 9.86 ×10⁻⁶ cm/s |  |  |
| CN(c1nnc(-c2ccc(-c3cnn(C)c3)cc2O)s1)[C@@H]1C[C@H]2CCC[C@H](N2)[C@@H]1F (racemic) [1A/1B, 2-(5-(((1S,2S,3R,5R)-2-fluoro-9-azabicyclo[3.3.1]nonan-3-yl)(methyl)amino)-1,3,4-thiadiazol-2-yl)-5-(1-methyl-1H-pyrazol-4-yl)phenol and 2-(5-(((1R,2R,3S,5S)-2-fluoro-9-azabicyclo[3.3.1]nonan-3-yl)(methyl)amino)-1,3,4-thiadiazol-2-yl)-5-(1-methyl-1H-pyrazol-4-yl)phenol] |  |  |  |  |  | 6 | 5.5 |
| CN(c1nnc(-c2ccc(-c3ccn(CF)c(=O)c3)cc2O)s1)[C@@H]1C[C@H]2CC[C@H](N2)[C@@H]1F (racemic) [15A/15B, 4-[4-(5-{[(1S,2S,3R)-2-fluoro-8-azabicyclo[3.2.1]octan-3-yl](methyl)amino}-1,3,4-thiadiazol-2-yl)-3-hydroxyphenyl]-1-(fluoromethyl)-1,2-dihydropyridin-2-one and 4-[4-(5-{[(2R,3S,5S)-2-fluoro-8-azabicyclo[3.2.1]octan-3-yl](methyl)amino}-1,3,4-thiadiazol-2-yl)-3-hydroxyphenyl]-1-(fluoromethyl)-1,2-dihydropyridin-2-one] |  |  |  |  |  | 66 | 40 |
| CN(c1nnc(-c2ccc(-c3cc(=O)n(C)cn3)cc2O)s1)[C@H]1C[C@@H]2CC[C@@H](N2)[C@H]1F (single isomer, unassigned) [Compound E-8B] | 67% | 42% | 31 | 0.66 ×10⁻⁶ cm/s | 20.6 ×10⁻⁶ cm/s |  |  |
| COc1cc(-c2ccc(-c3nnc(N(C)[C@@H]4C[C@H]5CC[C@H](N5)[C@@H]4F)s3)c(O)c2)ccn1 (single isomer, unassigned) [Compound E-11A] | 20% | 56% | 2 | 4.19 ×10⁻⁶ cm/s | 9.76 ×10⁻⁶ cm/s |  |  |
| CN(c1nnc(-c2ccc(-c3ccn(C)c(=O)c3)cc2O)s1)[C@@H]1C[C@H]2CC[C@H](N2)[C@@H]1F (single isomer, unassigned) [Compound E-4A] | 93% | 101% | 54 | 1.03 ×10⁻⁶ cm/s | 55.9 ×10⁻⁶ cm/s |  |  |
